This note sets out measurements from patent US9249102B2 (priority 2012, dated 2016).

Like-named read-outs stand apart in the source and are kept apart here. Some results are limits rather than exact numbers.

The test system of one test is Haemonchus contortus. Nature of the test: Method A: Haemonchus contortus L1 larvae, microtitre plate screen. Particulars: 96 h, read-out: motility inhibition.
In test [1] the test system is microfilaria of Dirofilaria immitis. Nature of the test: Method F: microfilaria of Dirofilaria immitis, survival at 24 hours.
The mark [2] stands for this setting: survival of microfilaria at 24 hours.

Regarding `O=C(NCCO[C@H]1CC[C@H](Nc2ccc([N+](=O)[O-])c(C(F)(F)F)c2)CC1)C(=O)NCC1Cc2cc(F)ccc2O1` (some centres unmarked) [Compound 217], the inhibition at 5 µg/mL in the test with Haemonchus contortus was no less than 90%. Also, the EC50 in test [1] was less than 1 µg/mL.
Regarding `N#Cc1ccc(N[C@H]2CC[C@H](OCC(=O)N3CCN(CC4Cc5cc(F)ccc5O4)CC3)CC2)cc1C(F)(F)F` (some centres unmarked) [Compound 83], the inhibition at 5 µg/mL with Haemonchus contortus was no less than 90%. In test [1] (setting [2]), the EC50 was less than 5 µg/mL.
For the compound `N#Cc1ccc(N[C@H]2CC[C@H](OCC(=O)N3CCN(C(=O)C4Cc5cc(C(F)(F)F)ccc5O4)CC3)CC2)cc1C(F)(F)F` (some centres unmarked) [Compound 87, 2-[4-(4-cyano-3-trifluoromethyl-phenylamino)-cyclohexyloxy]-1-[4-(5-trifluoromethyl-2,3-dihydro-benzofuran-2-carbonyl)-piperazin-1-yl]-ethanone], in the test on Haemonchus contortus, the inhibition at 5 µg/mL is no less than 90%. Moreover, in test [1] (setting [2]), the EC50 was less than 5 µg/mL.
Turning to `CC(O[C@H]1CC[C@H](Nc2ccc([N+](=O)[O-])c(C(F)(F)F)c2)CC1)C(=O)N1CCN(c2ccc3cc(F)ccc3c2)CC1` (some centres unmarked) [Compound 252, 1-(4-(6-fluoronaphthalen-2-yl)piperazin-1-yl)-2-(−4-(4-nitro-3-(trifluoromethyl)phenylamino)cyclohexyloxy)propan-1-one], the inhibition at 5 µg/mL in the test with Haemonchus contortus was no less than 90%. The EC50 in test [1] (setting [2]) is less than 1 µg/mL.
Turning to `CC(O[C@H]1CC[C@H](Nc2ccc([N+](=O)[O-])c(C(F)(F)F)c2)CC1)C(=O)N1CCN(c2ccc3cc(Cl)ccc3n2)CC1` (some centres unmarked) [Compound 250, 1-[4-(6-chloroquinolin-2-yl)piperazin-1-yl]-2-[[4-[[4-nitro-3-(trifluoromethyl)phenyl]amino]cyclohexyl]oxy]propan-1-one], the inhibition at 5 µg/mL with Haemonchus contortus is no less than 90%. For the same compound, the EC50 in test [1] (setting [2]) was less than 1 µg/mL.
On the same counts, the results for `CN(c1ccc([N+](=O)[O-])c(C(F)(F)F)c1)[C@H]1CC[C@H](OCC(=O)N2CCN(Cc3oc4ccc(C(F)(F)F)cc4c3Cl)CC2)CC1` [Compound 258, 1-(4-[[3-chloro-5-(trifluoromethyl)-1-benzofuran-2-yl]methyl]piperazin-1-yl)-2-[[4-[methyl[4-nitro-3-(trifluoromethyl)phenyl]amino]cyclohexyl]oxy]ethan-1-one] are no less than 90% and less than 1 µg/mL.
With `CC(c1cc2cc(C(F)(F)F)ccc2o1)N1CCN(C(=O)CO[C@H]2CC[C@H](N(C)c3ccc([N+](=O)[O-])c(C(F)(F)F)c3)CC2)CC1` (some centres unmarked) [Compound 257, 2-[[4-[methyl[4-nitro-3-(trifluoromethyl)phenyl]amino]cyclohexyl]oxy]-1-(4-[1-[5-(trifluoro-methyl)-1-benzofuran-2-yl]ethyl]piperazin-1-yl)ethan-1-one], the inhibition at 5 µg/mL in the test on Haemonchus contortus is no less than 90%. Further, in test [1] (setting [2]), the EC50 is less than 5 µg/mL.
On the same counts, the results for `O=C(COc1ccc(Nc2ccc([N+](=O)[O-])c(C(F)(F)F)c2)cc1)N1CCN(Cc2cc3cc(F)ccc3o2)CC1` [Compound 186] are no less than 90% and less than 1 µg/mL.
Regarding `O=C(CO[C@H]1CC[C@H](Nc2ccc([N+](=O)[O-])c(C(F)(F)F)c2)CC1)N1CCc2cc(C(F)(F)F)ccc2C1` [Compound 194, 2-[(4-[[4-nitro-3-(trifluoromethyl)phenyl]amino]cyclohexyl)oxy]-1-[6-(trifluoromethyl)-1,2,3,4-tetrahydroisoquinolin-2-yl]ethan-1-one], the inhibition at 5 µg/mL with Haemonchus contortus is no less than 90%. Besides, in test [1] (setting [2]), the EC50 was less than 1 µg/mL.
Take `CC(CN1CCN(c2ccc3cc(F)ccc3n2)CC1)C(=O)N1CCC(Nc2ccc([N+](=O)[O-])c(C(F)(F)F)c2)CC1` (centres unmarked) [Compound 100, 3-[4-(6-fluoroquinolin-2-yl)piperazin-1-yl]-2-methyl-1-(4-[[4-nitro-3-(trifluoromethyl)phenyl]amino]piperidin-1-yl)propan-1-one]: in the test on Haemonchus contortus, the inhibition at 5 µg/mL was no less than 90%. The concentration giving a half-maximal response (EC50) in test [1] (setting [2]) is less than 5 µg/mL.
Take `O=C(CO[C@H]1CC[C@H](Nc2ccc([N+](=O)[O-])c(C(F)(F)F)c2)CC1)N1CCN(Cc2oc3ccc(C(F)(F)F)cc3c2Cl)CC1` [Compound 253, 1-(4-[[3-chloro-5-(trifluoromethyl)-1-benzofuran-2-yl]methyl]piperazin-1-yl)-2-[[4-[[4-nitro-3-(trifluoromethyl)phenyl]amino]cyclohexyl]oxy]ethan-1-one]: the inhibition at 5 µg/mL in the test on Haemonchus contortus was no less than 90%. Also, the EC50 in test [1] (setting [2]) was less than 0.1 µg/mL.
With `O=C(CO[C@H]1CC[C@H](Nc2ccc([N+](=O)[O-])c(C(F)(F)F)c2)CC1)N1CCN(c2ccc3cc(C(F)(F)F)ccc3c2)CC1` [Compound 232, 2-[4-(4-nitro-3-trifluoromethyl-phenylamino)-cyclohexyloxy]-1-[4-(6-trifluoromethyl-naphthalen-2-yl)-piperazin-1-yl]-ethanone], the inhibition at 5 µg/mL in the test with Haemonchus contortus is no less than 90%. In test [1] (setting [2]), the concentration for a half-maximal effect (EC50) was less than 5 µg/mL.
With `N#Cc1ccc(NC2CCN(C(=O)CCCN3CCN(c4ccc5cc(Cl)ccc5n4)CC3)CC2)cc1C(F)(F)F` [Compound 96, 4-[(1-[4-[4-(6-chloroquinolin-2-yl)piperazin-1-yl]butanoyl]piperidin-4-yl)amino]-2-(trifluoromethyl)benzonitrile], the inhibition at 5 µg/mL in the test on Haemonchus contortus was no less than 90%. In addition, the EC50 in test [1] (setting [2]) was less than 5 µg/mL.
For `CC(O[C@H]1CC[C@H](Nc2ccc([N+](=O)[O-])c(C(F)(F)F)c2)CC1)C(=O)N1CCN(c2ccc3cc(F)ccc3n2)CC1` (some centres unmarked) [Compound 251, 1-[4-(6-fluoroquinolin-2-yl)piperazin-1-yl]-2-[[4-[[4-nitro-3-(trifluoromethyl)phenyl]amino]cyclohexyl]oxy]propan-1-one], in that order: no less than 90% and less than 1 µg/mL.
As to `O=C(CO[C@H]1CC[C@H](Nc2ccc([N+](=O)[O-])c(C(F)(F)F)c2)CC1)N1CCN(Cc2cc3cc(F)ccc3o2)CC1` [Compound 179, 1-[4-[(5-fluoro-1-benzofuran-2-yl)methyl]piperazin-1-yl]-2-[(4-[[4-nitro-3-(trifluoromethyl)phenyl]amino]cyclohexyl)oxy]ethan-1-one], the inhibition at 5 µg/mL in the test on Haemonchus contortus was no less than 90%. In test [1] (setting [2]), the EC50 was less than 1 µg/mL.
For the compound `O=[N+]([O-])c1ccc(N[C@H]2CC[C@H](OCC(=S)N3CCN(c4ccc5cc(F)ccc5c4)CC3)CC2)cc1C(F)(F)F` [Compound 263, 1-[4-(6-fluoro-naphthalen-2-yl)-piperazin-1-yl]-2-[4-(4-nitro-3-trifluoromethyl-henylamino)-cyclohexyloxy]-ethanethione], the inhibition at 5 µg/mL in the test with Haemonchus contortus is no less than 90%. For the same compound, in test [1] (setting [2]), the EC50 is less than 1 µg/mL.
For `CN(c1ccc([N+](=O)[O-])c(C(F)(F)F)c1)[C@H]1CC[C@H](OCC(=O)N2CCN(c3ccc4cc(F)ccc4n3)CC2)CC1` [Compound 247, 1-(4-(6-fluoroquinolin-2-yl)piperazin-1-yl)-2-(4-(methyl(4-nitro-3-(trifluoromethyl)phenyl)amino)cyclohexyloxy)ethanone], in that order: no less than 90% and less than 1 µg/mL.
Take `CC(CN1CCN(c2ccc3cc(Cl)ccc3n2)CC1)C(=O)N1CCC(Nc2ccc([N+](=O)[O-])c(C(F)(F)F)c2)CC1` (centres unmarked) [Compound 93, 3-[4-(6-chloroquinolin-2-yl)piperazin-1-yl]-2-methyl-1-(4-[[4-nitro-3-(trifluoromethyl)phenyl]amino]piperidin-1-yl)propan-1-one]: the inhibition at 5 µg/mL in the test on Haemonchus contortus is no less than 90%. In addition, the EC50 in test [1] (setting [2]) was less than 5 µg/mL.
In the case of `O=C(NCCO[C@H]1CC[C@H](Nc2ccc([N+](=O)[O-])c(C(F)(F)F)c2)CC1)C(=O)NCC1Cc2ccccc2O1` (some centres unmarked) [Compound 216], the inhibition at 5 µg/mL in the test on Haemonchus contortus was no less than 90%. The compound also showed a half-maximal effective concentration (EC50) in test [1] (setting [2]) of less than 1 µg/mL.
As for `CN(c1ccc([N+](=O)[O-])c(C(F)(F)F)c1)[C@H]1CC[C@H](OCC(=O)N2CCN(c3ccc4cc(F)ccc4c3)CC2)CC1` [Compound 248, 1-(4-(6-fluoronaphthalen-2-yl)piperazin-1-yl)-2-(4-(methyl(4-nitro-3-(trifluoromethyl)phenyl)amino)cyclohexyloxy)ethanone], the inhibition at 5 µg/mL in the test on Haemonchus contortus is no less than 90%. In test [1], this compound returned an EC50 of less than 0.1 µg/mL.
Consider `N#Cc1ccc(N[C@H]2CC[C@H](OCC(=O)N3CCN(c4ccc5cc(F)ccc5c4)CC3)CC2)cc1C(F)(F)F` [Compound 279, 4-(4-{2-[4-(6-fluoro-naphthalen-2-yl)-piperazin-1-yl]-2-oxo-ethoxy}-cyclohexylamino)-2-trifluoromethyl-benzonitrile], for which the inhibition at 5 µg/mL with Haemonchus contortus was no less than 90%. In test [1] (setting [2]), this compound registered an EC50 of less than 5 µg/mL.
On the same counts, the results for `O=C(NCCOc1ccc(Nc2ccc([N+](=O)[O-])c(C(F)(F)F)c2)cc1)C(=O)NCC1Cc2cc(Cl)ccc2O1` (centres unmarked) [Compound 226, N^1-((5-chloro-2,3-dihydrobenzofuran-2-yl)methyl)-N^2-(2-(4-(4-nitro-3-(trifluoromethyl)phenylamino)phenoxy)ethyl)oxalamide] are no less than 90% and less than 1 µg/mL.
For `O=C(CO[C@H]1CC[C@H](Nc2ccc([N+](=O)[O-])c(C(F)(F)F)c2)CC1)N1CCN(c2ccc3ccccc3c2)CC1` [Compound 14, 1-[4-(naphthalen-2-yl)piperazin-1-yl]-2-[(4-[[4-nitro-3-(trifluoromethyl)phenyl]amino]cyclohexyl)oxy]ethan-1-one], in that order: no less than 90% and less than 1 µg/mL.
For `CC(CN1CCN(c2ccc3ccccc3c2)CC1)C(=O)N1CCC(Nc2ccc([N+](=O)[O-])c(C(F)(F)F)c2)CC1` (centres unmarked) [Compound 13, 2-methyl-3-[4-(naphthalen-2-yl)piperazin-1-yl]-1-(4-[[4-nitro-3-(trifluoromethyl)phenyl]amino]piperidin-1-yl)propan-1-one], in that order: no less than 90% and less than 1 µg/mL.
As to `O=C(COc1ccc(Nc2ccc([N+](=O)[O-])c(C(F)(F)F)c2)cc1)N1CCN(CC2Cc3cc(F)ccc3O2)CC1` (centres unmarked) [Compound 185, 1-[4-[(5-fluoro-2,3-dihydro-1-benzofuran-2-yl)methyl]piperazin-1-yl]-2-(4-[[4-nitro-3-(trifluoromethyl)phenyl]amino]phenoxy)ethan-1-one], the inhibition at 5 µg/mL with Haemonchus contortus is no less than 90%. This compound also had an EC50 in test [1] (setting [2]) of less than 0.1 µg/mL.

As usually defined, the inhibition is the drop in the measured response relative to a control, in per cent. The EC50 is the midpoint of the concentration-response curve.
